Source: patent publication US8906933B2, “Dihydropyrimidin-2(1H)-one compounds as neurokinin-3 receptor antagonists” (N30 Pharmaceuticals, Inc., priority 2010, dated 2014)
Like-named read-outs stand apart in the source and are kept apart here.

Experiments:
human NK3 receptor [1] = biological target: T1, human NK3 receptor (Homo sapiens (Human), UniProt P29371); experiment: Human NK3 receptor binding assay at 1 uM; details: 1 μM test compound; [3H]SR142801, CHO cell membranes; read-out: percent inhibition at 1 μM
Description: Antagonist activity was evaluated at a concentration of 1 μM for a representative subset of test compounds, and the results were expressed as the percent inhibition at that concentration.
Each test compound was evaluated at a single concentration of 1 μM. […] The results are expressed as a percent of control specific binding ((measured specific binding/control specific binding)×100) obtained in the presence of the test compounds.

human NK3 receptor [2] = biological target: T1, human NK3 receptor; experiment: Human NK3 receptor binding assay at 10 μM; details: 10 μM test compound, [3H]SR142801, CHO cell membranes
Description: Antagonist activity was evaluated at a concentration of 10 μM for a representative subset of test compounds, and the results were expressed as the percent inhibition at that concentration.
Each test compound was evaluated at a single concentration of 10 μM. […] The results are expressed as a percent of control specific binding ((measured specific binding/control specific binding)×100) obtained in the presence of the test compounds.

[3] = read-out: percent inhibition at 10 μM
[4] = read-out: NK3, % inhibition @ 10 μM

T1 sequence (P29371 whole entry): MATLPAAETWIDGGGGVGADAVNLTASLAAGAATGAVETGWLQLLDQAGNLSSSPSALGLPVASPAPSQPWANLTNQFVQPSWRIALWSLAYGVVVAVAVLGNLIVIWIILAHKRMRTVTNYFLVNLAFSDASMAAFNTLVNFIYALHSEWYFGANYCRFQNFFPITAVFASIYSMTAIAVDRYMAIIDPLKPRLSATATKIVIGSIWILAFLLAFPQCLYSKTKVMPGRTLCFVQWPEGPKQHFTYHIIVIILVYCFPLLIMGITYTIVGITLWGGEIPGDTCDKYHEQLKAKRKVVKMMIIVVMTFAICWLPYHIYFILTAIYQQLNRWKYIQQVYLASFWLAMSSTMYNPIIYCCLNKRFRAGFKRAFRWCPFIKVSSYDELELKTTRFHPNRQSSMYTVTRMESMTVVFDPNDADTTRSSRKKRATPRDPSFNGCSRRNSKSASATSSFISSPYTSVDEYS

SMILES | inhibition at 1 µM (human NK3 receptor [1]) | inhibition at 10 µM (human NK3 receptor [2]; [3]) | inhibition at 10 µM (human NK3 receptor [2]; [4])
N#Cc1cccc(C2NC(=O)NC(c3ccccc3)=C2c2ccccc2)c1O (centres unmarked) [2-hydroxy-3-(2-oxo-5,6-diphenyl-1,2,3,4-tetrahydropyrimidin-4-yl)benzonitrile] | > 50% |  | 
CCOc1cc(C2NC(=O)NC(c3ccccc3)=C2c2cccc(C#N)c2)cc([N+](=O)[O-])c1O (centres unmarked) [3-(4-(3-ethoxy-4-hydroxy-5-nitrophenyl)-2-oxo-6-phenyl-1,2,3,4-tetrahydropyrimidin-5-yl)benzonitrile] |  | > 50% | 
CCOc1cc(C2NC(=O)NC(c3ccccc3)=C2c2ccccc2)cc(Br)c1O (centres unmarked) [4-(3-bromo-5-ethoxy-4-hydroxyphenyl)-5,6-diphenyl-3,4-dihydropyrimidin-2(1H)-one] | > 50% |  | 
O=C1NC(c2ccccc2)=C(c2ccccc2)C(c2cc(Cl)c(O)c([N+](=O)[O-])c2)N1 (centres unmarked) [4-(3-chloro-4-hydroxy-5-nitrophenyl)-5,6-diphenyl-3,4-dihydropyrimidin-2(1H)-one] |  | > 50% | 
CCOc1cc(C2NC(=O)NC(c3ccccc3)=C2c2ccccc2)cc([N+](=O)[O-])c1O (centres unmarked) [4-(3-ethoxy-4-hydroxy-5-nitrophenyl)-5,6-diphenyl-3,4-dihydropyrimidin-2(1H)-one] |  | > 50% | 88%
CCOc1cc(C2NC(=O)NC(c3ccccc3)=C2c2cccc(CC)c2)cc([N+](=O)[O-])c1O (centres unmarked) [4-(3-ethoxy-4-hydroxy-5-nitrophenyl)-5-(3-ethylphenyl)-6-phenyl-3,4-dihydropyrimidin-2(1H)-one] | > 50% |  | 
CCOc1cc(C2NC(=O)NC(c3ccccc3)=C2c2cccc(F)c2)cc([N+](=O)[O-])c1O (centres unmarked) [4-(3-ethoxy-4-hydroxy-5-nitrophenyl)-5-(3-fluorophenyl)-6-phenyl-3,4-dihydropyrimidin-2(1H)-one] | > 50% |  | 
CCOc1cc(C2NC(=O)NC(c3ccc(C(F)(F)F)cc3)=C2c2ccccc2)cc([N+](=O)[O-])c1O (centres unmarked) [4-(3-ethoxy-4-hydroxy-5-nitrophenyl)-5-phenyl-6-(4-(trifluoromethyl)phenyl)-3,4-dihydropyrimidin-2(1H)-one] | > 50% |  | 
CCOc1cc(C2NC(=O)NC(c3cccnc3)=C2c2ccccc2)cc([N+](=O)[O-])c1O (centres unmarked) [4-(3-ethoxy-4-hydroxy-5-nitrophenyl)-5-phenyl-6-(pyridin-3-yl)-3,4-dihydropyrimidin-2(1H)-one] |  | > 50% | 92%
CCOc1cc(C2NC(=O)NC(c3cccs3)=C2c2ccccc2)cc([N+](=O)[O-])c1O (centres unmarked) [4-(3-ethoxy-4-hydroxy-5-nitrophenyl)-5-phenyl-6-(thiophen-2-yl)-3,4-dihydropyrimidin-2(1H)-one] |  | > 50% | 
CCOc1cc(C2NC(=O)NC(c3ccsc3)=C2c2ccccc2)cc([N+](=O)[O-])c1O (centres unmarked) [4-(3-ethoxy-4-hydroxy-5-nitrophenyl)-5-phenyl-6-(thiophen-3-yl)-3,4-dihydropyrimidin-2(1H)-one] |  | > 50% | 
CCOc1cc(C2NC(=O)NC(c3ccccc3F)=C2c2ccccc2)cc([N+](=O)[O-])c1O (centres unmarked) [4-(3-ethoxy-4-hydroxy-5-nitrophenyl)-6-(2-fluorophenyl)-5-phenyl-3,4-dihydropyrimidin-2(1H)-one] | > 50% |  | 
CCOc1cc(C2NC(=O)NC(c3ccc(F)cc3)=C2c2ccccc2)cc([N+](=O)[O-])c1O (centres unmarked) [4-(3-ethoxy-4-hydroxy-5-nitrophenyl)-6-(4-fluorophenyl)-5-phenyl-3,4-dihydropyrimidin-2(1H)-one] | > 50% |  | 
CCOc1cc(C2NC(=O)NC(c3ccccc3)=C2c2ccccc2C)cc([N+](=O)[O-])c1O (centres unmarked) [4-(3-ethoxy-4-hydroxy-5-nitrophenyl)-6-phenyl-5-o-tolyl-3,4-dihydropyrimidin-2(1H)-one] | > 50% |  | 
CCOc1cc(C2NC(=O)NC(c3ccccc3)=C2c2ccc(C)cc2)cc([N+](=O)[O-])c1O (centres unmarked) [4-(3-ethoxy-4-hydroxy-5-nitrophenyl)-6-phenyl-5-p-tolyl-3,4-dihydropyrimidin-2(1H)-one] | > 50% |  | 
CCOc1cc(C2NC(=O)NC(c3ccccc3)=C2c2ccccc2)cc(F)c1O (centres unmarked) [4-(3-ethoxy-5-fluoro-4-hydroxyphenyl)-5,6-diphenyl-3,4-dihydropyrimidin-2(1H)-one] | > 50% |  | 
O=C1NC(c2ccccc2)=C(c2ccccc2)C(c2ccc(O)c([N+](=O)[O-])c2)N1 (centres unmarked) [4-(4-hydroxy-3-nitrophenyl)-5,6-diphenyl-3,4-dihydropyrimidin-2(1H)-one] | > 50% |  | 

Continued, values first:

inhibition at 1 µM (human NK3 receptor [1]) | inhibition at 10 µM (human NK3 receptor [2]; [3]) | inhibition at 10 µM (human NK3 receptor [2]; [4]) | SMILES
> 50% |  |  | CCOc1cc(C2NC(=O)NC(c3ccccc3)=C2c2ccccc2Cl)cc([N+](=O)[O-])c1O (centres unmarked) [5-(2-chlorophenyl)-4-(3-ethoxy-4-hydroxy-5-nitrophenyl)-6-phenyl-3,4-dihydropyrimidin-2(1H)-one]
> 50% |  |  | CCOc1cc(C2NC(=O)NC(c3ccccc3)=C2c2ccc(F)c(F)c2)cc([N+](=O)[O-])c1O (centres unmarked) [5-(3,4-difluorophenyl)-4-(3-ethoxy-4-hydroxy-5-nitrophenyl)-6-phenyl-3,4-dihydropyrimidin-2(1H)-one]
> 50% |  |  | CCOc1cc(C2NC(=O)NC(c3ccccc3)=C2c2ccc(Cl)cc2)cc([N+](=O)[O-])c1O (centres unmarked) [5-(4-chlorophenyl)-4-(3-ethoxy-4-hydroxy-5-nitrophenyl)-6-phenyl-3,4-dihydropyrimidin-2(1H)-one]
> 50% |  |  | CCOc1cc(C2NC(=O)NC(c3ccc(F)c(F)c3)=C2c2ccccc2)cc([N+](=O)[O-])c1O (centres unmarked) [6-(3,4-difluorophenyl)-4-(3-ethoxy-4-hydroxy-5-nitrophenyl)-5-phenyl-3,4-dihydropyrimidin-2(1H)-one]
> 50% |  |  | CCOc1cc(C2NC(=O)NC(c3cc(F)cc(F)c3)=C2c2ccccc2)cc([N+](=O)[O-])c1O (centres unmarked) [6-(3,5-difluorophenyl)-4-(3-ethoxy-4-hydroxy-5-nitrophenyl)-5-phenyl-3,4-dihydropyrimidin-2(1H)-one]
> 50% |  |  | CCOc1cc(C2NC(=O)NC(c3ccc(F)c(Cl)c3)=C2c2ccccc2)cc([N+](=O)[O-])c1O (centres unmarked) [6-(3-chloro-4-fluorophenyl)-4-(3-ethoxy-4-hydroxy-5-nitrophenyl)-5-phenyl-3,4-dihydropyrimidin-2(1H)-one]
> 50% |  |  | CCOc1cc(C2NC(=O)NC(c3cccc(Cl)c3)=C2c2ccccc2)cc([N+](=O)[O-])c1O (centres unmarked) [6-(3-chlorophenyl)-4-(3-ethoxy-4-hydroxy-5-nitrophenyl)-5-phenyl-3,4-dihydropyrimidin-2(1H)-one]
> 50% |  |  | CCOc1cc(C2NC(=O)NC(c3ccc(Cl)cc3)=C2c2ccccc2)cc([N+](=O)[O-])c1O (centres unmarked) [6-(4-chlorophenyl)-4-(3-ethoxy-4-hydroxy-5-nitrophenyl)-5-phenyl-3,4-dihydropyrimidin-2(1H)-one]
> 50% |  |  | CCOc1cc(C2NC(=O)NC(C3CCCC3)=C2c2ccccc2)cc([N+](=O)[O-])c1O (centres unmarked) [6-cyclopentyl-4-(3-ethoxy-4-hydroxy-5-nitrophenyl)-5-phenyl-3,4-dihydropyrimidin-2(1H)-one]
> 50% |  |  | CCOc1cc(C2NC(=O)NC(c3ccccc3)=C2c2ccccc2)cc2[nH]c(=O)oc12 (centres unmarked) [7-ethoxy-5-(2-oxo-5,6-diphenyl-1,2,3,4-tetrahydropyrimidin-4-yl)benzo[d]oxazol-2(3H)-one]
